Results: patent US4792554A, “Pyridine compounds, pharaceutical compositions, their use in allergy therapy” (priority 1985, dated 1988)
pIC50: −log10 of the molar value. Structures can show the parent of a compound that is named as a salt. Where two headings read alike, the source gives them in different places.

Legend:
mast cells [1] = experiment: Passive cutaneous anaphylaxis (PCA) in the rat, inhibition of mediator release (protective effect on mast cells); format: in vivo; details: for inhibition in vivo at 25 mg/kg: oral dose 25 mg/kg; for inhibition in vivo at 50 mg/kg: oral dose 50 mg/kg
Source text: (a) Passive cutaneous anaphylaxis (PCA) in the rat (PCA test) Passive cutaneous anaphylaxis is an IgE-mediated allergy of the immediate type (type I). In this model, antibodies bound to mast cells and basophilic granulocytes react with an intravenously administered antigen with release of excessive amount of the allergy mediators. The histamine which is released during this can be visualized by simultaneous application of Evans blue to the shaven flanks of the rats. Photometric evaluation of the color intensity was used to determine, by means of the percentage inhibition of mediator release compared with untreated control animals, the protective effect on mast cells of the compound according to the invention after oral administration.

[2] = Acute toxicity, mortality within 7 days after single i.p. administration to NMRI mice; details: in vivo, ip, mouse i.p.
Procedure: The LD50 values were determined by the standard method of the mortality occurring within 7 days after a single intraperitoneal (i.p.) administration to NMRI mice (NMRI=Naval Medical Research Institute).

[3] = system: rat peritoneal mast cells; experiment: Histamine release from isolated rat mast cells induced by calcium ionophore A 23 187; format: cell-based; details: for pIC50: Mast cell, 0.25 h, 15 min incubation, A 23 187 10^-6 g/ml, read-out: Inhibitory action in the Ca ionophore test IC50
Procedure: (b) Histamine release from isolated rat mast celss induced by calcium ionophore A 23 187 […] […] For this purpose, 10^4 cells were suspended in Clicks/RPMI (50:50, vol.; supplied by Serva, Heidelberg) tissue culture medium, incubated with the test substance for 15 minutes, and then treated with calcium ionophore A 23 187 at a concentration of 10^-6 g/ml. The released histamine was determined by high-pressure liquid chromatography (HPLC). The measure used for the inhibitory action was the IC50 which represents the molar concentration (mol/l) at which the induced histamine release was decreased to one half that of cells which had not been pretreated with a product. In this context, IC50 values above 10^-5 mol/l are regarded as therapeutically irrelevant.

bradykinin = experiment: Antagonistic action towards bradykinin: inhibition of bradykinin-induced bronchospasm in anesthetized guinea pigs (Konzett-Rössler); format: in vivo, guinea pig; details: Cavia porcellus, iv, read-out: Inhibitory action towards bradykinin (ED50)
Procedure: (§1) 1. Antagonistic action towards the allergy mediators (on anesthetized guinea pigs)
(§2) The test substances were administered intravenously in aqueous solution injected in a volume of 1 ml/kg.

[4] = long-term therapy, state of the art; cited from earlier work
[5] = state of the art; cited from earlier work
[6] = cited from earlier work
mast cells [7] = details: British Pat. No. 1,144,905; cited from earlier work
histamine = experiment: Antagonistic action towards histamine: inhibition of histamine-induced bronchospasm in anesthetized guinea pigs (Konzett-Rössler); format: in vivo, guinea pig; details: Cavia porcellus, iv, read-out: Inhibitory action towards histamine (ED50)
Procedure: as §1, §2

[8] = Anticholinergic action in the Konzett-Rössler model; format: in vivo, guinea pig
[9] = system: platelet activating factor (PAF); experiment: Antagonism of PAF-induced bronchospasm in anesthetized rats; format: in vivo, rat; details: PAF test
Procedure: The compounds of the formula I and their salts additionally show a pronounced inhibitory action on platelet activating factor (PAF) and the leukotrienes, which are likewise released as spasmogenic mediators from the mast cells during the course of the immediate anaphylactic reaction. It was possible to antagonize the bronchospasm induced in anesthetized rats by administration of PAF by, for example, intravenous administration of the compound of Example 3 with a ED50 of 1-3 mg/kg. The said products of the state of the art, such as oxatomide, ketotiphen and terfenadine, have no action in this test. The contractions induced by calcium ionophore A 23 187 in isolated strips of lung and the isolated trachea of guinea pigs were inhibited by, for example, the compound of Example 3 with an IC50 of 0.1-0.3 μg/ml. Since calcium ionophore A 23 187 stimulates 5-lipoxygenase and thus promotes the formation of spasmogenic leukotrienes, a possible interpretation of the result of this experiment is that the compounds according to the invention are potent leukotriene inhibitors.

[10] = system: spontaneous motility of the mouse; experiment: Spontaneous motility of the mouse (central sedation); format: in vivo; details: oral, 1 mg/kg
[11] = system: histamine and leukotrienes; details: state of the art; cited from earlier work
[12] = state of the art; cited from earlier work; remark: listed apart in the source
[13] = system: airway obstruction induced by histamine aerosol; experiment: Plethysmographic investigation on conscious guinea pigs with airway obstruction induced by inhalation of histamine aerosol; format: in vivo, guinea pig; details: oral, 0.3% strength histamine aerosol
[14] = anesthetized guinea pigs, dose reducing induced spasm to one half

Row | Compound | inhibition in vivo at 50 mg/kg (mast cells [1]; Mast cell) [%] | LD50 at 168 h [2] [mg/kg] | pIC50 [3] | ED50 (bradykinin; [14]) [mg/kg] | ED50 (histamine; [14]) [mg/kg] | further results
1 | Cc1cc(N2CCSCC2)c([N+](=O)[O-])c(C)n1.Cl [4-(2,6-dimethyl-3-nitro-4-pyridyl)thiomorpholine hydrochloride, reference compound] | 13 | 150 to 300 | > 4.00 | 3.16 | – | inhibition in vivo at 12.5 mg/kg (mast cells [1]; Mast cell, oral dose 12.5 mg/kg): 0%; inhibition in vivo at 25 mg/kg (mast cells [1]; Mast cell): 0%; protective effect on mast cells in PCA test (in words) (mast cells [1]; oral administration): inactive; inhibition of histamine release in the Ca ionophore test (in words) [3]: inactive
2 | COc1ccc(CCN2CCC(Nc3nc4ccccc4n3Cc3ccc(F)cc3)CC2)cc1 [ASTEMIZOLE] | – | – | – | – | – | weight gain [4]: undesired weight gain; solubility in water [5]: insolubility in water; sedation ([6]; side effect, state of the art): no sedative side effect
3 | O=C(O)c1cc(=O)c2c(OCC(O)COc3cccc4oc(C(=O)O)cc(=O)c34)cccc2o1 [CHROMOGLICIC ACID] | – | – | – | – | – | stabilizing mast cells (mast cells [7]): stabilizing mast cells
4 | Cc1cc(NCCN2CCN(C(c3ccccc3)c3ccccc3)CC2)c([N+](=O)[O-])c(C)[n+]1[O-].Cl.Cl.Cl.O.O [Example 1, 2,6-Dimethyl-3-nitro-4-[(2-{4-diphenylmethyl-1-piperazinyl}ethyl)amino]pyridine 1-oxide trihydrochloride dihydrate] | 91 | > 150 | 7.00 | – | – | ED50 (histamine): 0.3 to 1 mg/kg; ED50 (bradykinin): 1 to 3 mg/kg
5 | Cc1cc(NCCN2CCN(Cc3ccccc3)CC2)c([N+](=O)[O-])c(C)n1 [Example 2, 4-[(2-(4-benzyl-1-piperazinyl)ethyl)amino]-2,6-dimethyl-3-nitropyridinetrihydrochloride] | 67 | – | 5.00 | – | – | –
6 | Cc1cc(NCCN2CCN(C(c3ccccc3)c3ccccc3)CC2)c(N)c(C)n1.Cl.Cl.Cl.O.O [Example 4, 3-amino-2,6-dimethyl-4-[(2-{4-diphenylmethyl-1-piperazinyl}ethyl)amino]pyridine trihydrochloride dihydrate] | 73 | – | 7.30 | – | – | anticholinergic action [8]: strong anticholinergic action
7 | Cc1cc(NCCN2CCN(C(c3ccccc3)c3ccccc3)CC2)c(C(=O)O)c(C)n1.Cl.Cl.Cl.O.O [Example 5, 2,6-dimethyl-4-[(2-{4-diphenylmethyl-1-piperazinyl}-ethyl)amino]pyridine-3-carboxylic acid trihydrochloride dihydrate] | 91 | 300 to 600 | 7.00 | – | – | ED50 (histamine): 1 to 3 mg/kg; anticholinergic action [8]: strong anticholinergic action; ED50 (bradykinin): 3 mg/kg
8 | Cc1cc(NCCN2CCC(=C(c3ccccc3)c3ccccc3)CC2)c([N+](=O)[O-])c(C)n1.Cl.Cl.O.O [Example 6, 2,6-dimethyl-3-nitro-4-[(2-{4-diphenylmethylene-1-piperidyl}ethyl)amino]pyridine dihydrochloride dihydrate] | 91 | 600 to 1200 | – | – | – | ED50 (histamine): 1 to 3 mg/kg; ED50 (bradykinin): 3 to 6 mg/kg
9 | Cc1cc(NCCCN2CCN(C(c3ccccc3)c3ccccc3)CC2)c([N+](=O)[O-])c(C)n1 [Example 7] | 55 | 150 to 300 | 8.00 | 3 to 10 | 3 | –
10 | Cc1cc(NCCN2CCN(CC=Cc3ccccc3)CC2)c([N+](=O)[O-])c(C)n1 [Example 8] | 60 | 75 to 150 | 7.00 | 3 to 10 | 3 | –
11 | Cc1cc(NCCN2CCN(C(c3ccccc3)c3ccccc3)CC2)c(C#N)c(C)n1 [Example 9] | 64 | 300 to 600 | 8.00 | 3 to 10 | 0.3 to 1 | –
12 | Cc1cc(NCCN2CCN(C(c3ccccc3)c3ccccc3)CC2)c(C#N)c(C)[n+]1[O-] [Example 10] | 91 | 75 to 150 | > 8.00 | 1 to 3 | 0.1 to 0.3 | –
13 | CCCc1cc(NCCN2CCN(C(c3ccccc3)c3ccccc3)CC2)c([N+](=O)[O-])c(CCC)n1 [Example 12] | 61 | – | – | – | – | –
14 | Cc1cc(N(C)CCN2CCN(C(c3ccccc3)c3ccccc3)CC2)c([N+](=O)[O-])c(C)n1 [Example 13] | 68 | 150 to 300 | > 8.00 | 10 | 1 to 3 | –
15 | Cc1cc(NCCN2CCN(C(c3ccccc3)c3ccc(Cl)cc3)CC2)c([N+](=O)[O-])c(C)n1 (stereo not drawn) [Example 14] | 55 | 150 to 300 | 6.00 | 3 to 10 | 1 to 3 | –
16 | Cc1cc(NCCN2CCN(C(c3ccc(F)cc3)c3ccc(F)cc3)CC2)c([N+](=O)[O-])c(C)n1 [Example 15] | 59 | 300 to 600 | 7.00 | 3 to 6 | 1 to 3 | –
17 | Cc1cc(NCCN2CCN(C(c3ccncc3)c3ccc(Cl)cc3)CC2)c([N+](=O)[O-])c(C)n1 (stereo not drawn) [Example 16] | 75 | 300 to 600 | 7.00 | 1 | 1 | inhibition in vivo at 25 mg/kg (mast cells [1]; Mast cell): 46%
18 | Cc1cc(NCCN2CCC(C(O)(c3ccccc3)c3ccccc3)CC2)c([N+](=O)[O-])c(C)n1 [Example 17, 4-[(2-{4-hydroxy(diphenyl)methyl-1-piperidyl}ethyl)amino]-2,6-dimethyl-3-nitropyridine dihydrochloride] | 91 | 75 to 150 | > 8.00 | 3 to 10 | 0.3 | –
19 | O=[N+]([O-])c1cnccc1NCCN1CCN(C(c2ccccc2)c2ccccc2)CC1 [Example 21] | – | 150 to 300 | – | 0.03 | 0.02 | –
20 | CN1CCC(=C2c3ccccc3CC(=O)c3sccc32)CC1 [ketotifen] | – | – | – | – | – | action on PAF / PAF-induced bronchospasm (in words) [9]: no action; reduction in the spontaneous motility [10]: significant; sedation ([6]; side effect, state of the art): pronounced sedation; antagonistic properties for histamine and leukotrienes [11]: antagonistic properties for histamine and leukotrienes
21 | O=c1[nH]c2ccccc2n1CCCN1CCN(C(c2ccccc2)c2ccccc2)CC1 [oxatomide] | – | – | – | – | – | action on PAF / PAF-induced bronchospasm (in words) [9]: no action; onset of action [12]: does not exert its action until several days have passed; ED50 ([13]; Cavia porcellus): 25 mg/kg; time after administration to maximum effect [13]: 90 min; sedation ([6]; side effect, state of the art): pronounced sedation; antagonistic properties for histamine and leukotrienes [11]: antagonistic properties for histamine and leukotrienes
22 | CC(C)(C)c1ccc(C(O)CCCN2CCC(C(O)(c3ccccc3)c3ccccc3)CC2)cc1 (stereo not drawn) [terfenadine] | – | – | – | – | – | action on PAF / PAF-induced bronchospasm (in words) [9]: no action; weight gain [4]: undesired weight gain; solubility in water [5]: insolubility in water; sedation ([6]; in vivo): no sedative side effect
